According to US20240174702A1, “SOLID FORMS OF A COMPOUND FOR […]” (Gilead Sciences, Inc., priority 2022, published 2024):

Columns and labels:
[1] = Stability study: loss of purity over time by liquid chromatography; format: physicochemical
Protocol: Formula I amorphous material and Forms I, II, III and IV were examined for loss of purity over time as determined by liquid chromatography.
The sample preparations for the stability study are described as follows: • Formula I Amorphous: A sample of amorphous solids was placed at about 22° C. open to air and the purity was monitored over 3 days by liquid chromatography. • Formula I Form I: Samples of Formula I Form I were placed in sealed glass vials and placed in a chamber at about 40° C. and about 75% RH and the purity was periodically monitored by liquid chromatography. • Formula I Form II: Samples of Formula I Form II were placed in an open vial. The vial was placed inside a container alongside a saturated salt solution to provide a humidity of about 88% RH and sealed. The sealed container was then placed into a chamber at about 40° C. and the purity was periodically monitored by liquid chromatography. • Formula I Form III: Samples of Formula I Form […] and sealed. The sealed container was then placed into a chamber at about 40° C. and the purity was periodically monitored by liquid chromatography. • Formula I Form IV: Samples of Formula I Form IV were packaged at about 0% RH inside a PE bag and heat-sealed inside a foil pouch. The pouches were then placed in a chamber at about 40° C. and the purity was periodically monitored by liquid chromatography.

[2] = Dynamic vapor sorption (DVS) hygroscopicity; format: physicochemical; conditions: 25° C.
Protocol: Hygroscopicity was studied using dynamic vapor sorption (DVS, TA Q5000 SA, TA Instruments, New Castle, DE or DVS, DVS Intrinsic, Surface Measurement Systems, London, UK). A sample (2-20 mg) was placed in an aluminum DVS pan and loaded on the sample side of the twin pan balance. The water sorption and desorption were studied as a function of relative humidity (RH) at 25° C. In 10% RH increments, the relative humidity was increased from 5% RH to 95% RH and then decreased back to 5% (some cases from 0 to 90% RH and then decrease back to 0%). […] Data analysis was performed using Universal Analysis 2000 Version 4.7A (TA Instruments, New Castle, DE) for TA DVS runs and Microsoft Excel for SMS DVS runs.

## Cn1ccc2c([C@@H](c3cn(C45CC(C4)C5)nn3)N(C(=O)OCOP(=O)(O)O)c3cc(Cl)c4ncc(C#N)c(NCC(C)(C)C)c4c3)cccc2c1=O [Formula I Amorphous]
[1]; About 22° C., open to atmosphere, 0 days
  Formula I Purity Over Time (% purity): 95.74 % purity
[1]; About 22° C., open to atmosphere, 1 day
  Formula I Purity Over Time (% purity): 95.45 % purity
[1]; About 22° C., open to atmosphere, 2 days
  Formula I Purity Over Time (% purity): 95.18 % purity
[1]; About 22° C., open to atmosphere, 3 days
  Formula I Purity Over Time (% purity): 95.05 % purity

## Cn1ccc2c([C@@H](c3cn(C45CC(C4)C5)nn3)N(C(=O)OCOP(=O)(O)O)c3cc(Cl)c4ncc(C#N)c(NCC(C)(C)C)c4c3)cccc2c1=O [Formula I Form IV]
[1]; About 40° C., about 0% RH, 0 days
  Formula I Purity Over Time (% purity): 99.49 % purity
[1]; About 40° C., about 0% RH, 14 days
  Formula I Purity Over Time (% purity): 99.44 % purity
[1]; About 40° C., about 0% RH, 28 days
  Formula I Purity Over Time (% purity): 99.43 % purity

## Cn1ccc2c([C@@H](c3cn(C45CC(C4)C5)nn3)N(C(=O)OCOP(=O)(O)O)c3cc(Cl)c4ncc(C#N)c(NCC(C)(C)C)c4c3)cccc2c1=O [Formula I Pyruvate Form B]
[2]; 10-90% RH
  DVS weight change: about 4.3%
[2]; 50-90% RH
  DVS weight change: about 2.5%

## Cn1ccc2c([C@@H](c3cn(C45CC(C4)C5)nn3)N(C(=O)OCOP(=O)(O)O)c3cc(Cl)c4ncc(C#N)c(NCC(C)(C)C)c4c3)cccc2c1=O [Formula I α-Ketobutyrate Form B]
[2]; 0-90% RH
  DVS weight change: about 5.5%
[2]; 50-90% RH
  DVS weight change: about 2%

## Cn1ccc2c([C@@H](c3cn(C45CC(C4)C5)nn3)N(C(=O)OCOP(=O)(O)O)c3cc(Cl)c4ncc(C#N)c(NCC(C)(C)C)c4c3)cccc2c1=O [Formula I Glycolate]
[2]; 0-90% RH
  DVS weight change: about 7.5%
[2]; 50-90% RH
  DVS weight change: about 2%

## Cn1ccc2c([C@@H](c3cn(C45CC(C4)C5)nn3)N(C(=O)OCOP(=O)(O)O)c3cc(Cl)c4ncc(C#N)c(NCC(C)(C)C)c4c3)cccc2c1=O [Formula I Form II]
[1]; About 40° C., about 88% RH, 0 days
  Formula I Purity Over Time (% purity): 98.78 % purity
[1]; About 40° C., about 88% RH, 1 day
  Formula I Purity Over Time (% purity): 98.67 % purity
[1]; About 40° C., about 88% RH, 7 days
  Formula I Purity Over Time (% purity): 98.64 % purity
[1]; About 40° C., about 88% RH, 14 days
  Formula I Purity Over Time (% purity): 98.59 % purity
[1]; compared to Formula I Form I or Formula I amorphous material
  loss of purity over time: decreased loss of purity over time

## Cn1ccc2c([C@@H](c3cn(C45CC(C4)C5)nn3)N(C(=O)OCOP(=O)(O)O)c3cc(Cl)c4ncc(C#N)c(NCC(C)(C)C)c4c3)cccc2c1=O [Formula I Form I]
[1]; About 40° C., about 75% RH, 0 days
  Formula I Purity Over Time (% purity): 99.13 % purity
[1]; About 40° C., about 75% RH, 7 days
  Formula I Purity Over Time (% purity): 98.37 % purity
[1]; About 40° C., about 75% RH, 14 days
  Formula I Purity Over Time (% purity): 97.97 % purity
[1]; About 40° C., about 75% RH, 28 days
  Formula I Purity Over Time (% purity): 96.57 % purity
[2]; RH 5-95%
  DVS weight change: about 9.5 weight percent

## Cn1ccc2c([C@@H](c3cn(C45CC(C4)C5)nn3)N(C(=O)OCOP(=O)(O)O)c3cc(Cl)c4ncc(C#N)c(NCC(C)(C)C)c4c3)cccc2c1=O [Formula I Form III]
[1]; About 40° C., about 27% RH, 0 days
  Formula I Purity Over Time (% purity): 98.61 % purity
[1]; About 40° C., about 27% RH, 1 day
  Formula I Purity Over Time (% purity): 98.58 % purity
[1]; About 40° C., about 27% RH, 7 days
  Formula I Purity Over Time (% purity): 98.55 % purity
[1]; About 40° C., about 27% RH, 14 days
  Formula I Purity Over Time (% purity): 98.50 % purity
